Assay: wn = mass fraction of the nth substance listed
Conditions: Pendant drop shape

[Cl-].[K+] [potassium chloride] + O
surface tension liquid-gas [mN/m]
Conditions | w1 = 0.025 | w1 = 0.05 | w1 = 0.075 | w1 = 0.1 | w1 = 0.125 | w1 = 0.15 | w1 = 0.175 | w1 = 0.2
293.15 K | 73.32 | 73.89 | 74.52 | 75.13 | 75.61 | 76.15 | 77.1 | 77.99
303.15 K | 71.83 | 72.44 | 73.09 | 73.68 | 74.44 | 75.18 | 75.74 | 76.32
313.15 K | 70.27 | 71.05 | 71.66 | 72.24 | 72.88 | 73.56 | 74.18 | 74.82
323.15 K | 68.58 | 69.17 | 69.84 | 70.49 | 71.12 | 71.74 | 72.36 | 73
333.15 K | 66.95 | 67.7 | 68.21 | 68.76 | 69.37 | 69.83 | 70.47 | 71.1
343.15 K | 65 | 65.55 | 66.46 | 67.35 | 67.94 | 68.47 | 69.17 | 69.81
353.15 K | 63.25 | 63.91 | 64.64 | 65.37 | 66.05 | 66.73 | 67.35 | 68.12

[Br-].[Na+] [sodium bromide] + O
surface tension liquid-gas [mN/m]
Conditions | w1 = 0.05 | w1 = 0.1 | w1 = 0.15 | w1 = 0.2 | w1 = 0.25 | w1 = 0.3 | w1 = 0.35 | w1 = 0.4
293.15 K | 74.11 | 75.5 | 76.51 | 77.4 | 78.93 | 80.32 | 82 | 83.5
303.15 K | 72.43 | 73.5 | 74.83 | 75.4 | 77.25 | 78.62 | 80.31 | 81.93
313.15 K | 70.75 | 72 | 73.14 | 74.1 | 75.68 | 77.05 | 78.73 | 80.36
323.15 K | 69.07 | 70 | 71.36 | 72.6 | 74 | 75.26 | 77.05 | 78.56
333.15 K | 67.28 | 68.4 | 69.67 | 70.8 | 72.31 | 73.6 | 75.37 | 76.87
343.15 K | 65.49 | 66.4 | 67.85 | 69.5 | 70.52 | 71.87 | 73.9 | 75.73
353.15 K | 63.71 | 64.73 | 65.99 | 67.34 | 68.6 | 70.06 | 71.81 | 73.32
